Series [1] deals with Mycobacterium tuberculosis. Kind of series: Reduction in intracellular dipeptide D-alanyl-D-alanine pool size in Mycobacterium tuberculosis H37Rv up to 5 times MIC by filter-based mass spectrometry technique. Type of series: functional, organism-based.
A short description of series [2]: Drug metabolism in Mycobacterium tuberculosis H37Rv assessed as compound remaining at 0.25 to 5 times MIC for 16 hrs measured 15 to 60 mins post compound washout. Format: ADME, organism-based. The settings on record: Mycobacterium tuberculosis H37Rv cells, read-out: Stability.
In series [3] the test system is Mycobacterium tuberculosis. Put plainly: Ratio of MIC for Mycobacterium tuberculosis H37Rv in presence of D-Alanine to MIC for Mycobacterium tuberculosis H37Rv. Format: functional.
Series [4] deals with T1, D-alanine--D-alanine ligase (Mycobacterium tuberculosis) (UniProt P9WP31).
T1 sequence (whole entry): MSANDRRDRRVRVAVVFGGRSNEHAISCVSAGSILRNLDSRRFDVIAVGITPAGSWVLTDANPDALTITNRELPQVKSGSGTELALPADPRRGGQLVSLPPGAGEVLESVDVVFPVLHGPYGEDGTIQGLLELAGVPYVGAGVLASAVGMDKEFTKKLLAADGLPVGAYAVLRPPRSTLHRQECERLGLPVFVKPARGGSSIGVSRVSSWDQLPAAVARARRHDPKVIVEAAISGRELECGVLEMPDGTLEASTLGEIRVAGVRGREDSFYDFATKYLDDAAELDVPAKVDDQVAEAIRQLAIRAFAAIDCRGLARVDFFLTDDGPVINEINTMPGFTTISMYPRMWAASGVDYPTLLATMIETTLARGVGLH
Kind of series: Competitive inhibition of D-alanine-D-alanine ligase in Mycobacterium tuberculosis H37Rv at MIC preincubated for 16 hrs followed by D-Ala-[2H] addition measured over 8 hrs by LC-MS/MS analysis.

Series [5] concerns the target T2, Alanine racemase (Mycobacterium tuberculosis) (UniProt P9WQA9).
T2 sequence (whole entry): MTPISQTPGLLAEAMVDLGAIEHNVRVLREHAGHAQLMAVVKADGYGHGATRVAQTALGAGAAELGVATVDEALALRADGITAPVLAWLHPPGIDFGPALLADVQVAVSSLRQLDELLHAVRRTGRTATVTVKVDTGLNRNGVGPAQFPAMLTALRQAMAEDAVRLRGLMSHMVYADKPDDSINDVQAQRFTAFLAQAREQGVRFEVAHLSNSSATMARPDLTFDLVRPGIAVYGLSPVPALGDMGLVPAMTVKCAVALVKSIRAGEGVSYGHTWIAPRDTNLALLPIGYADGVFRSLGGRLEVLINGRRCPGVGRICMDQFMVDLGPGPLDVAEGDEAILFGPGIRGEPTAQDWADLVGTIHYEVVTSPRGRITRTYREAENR
Put plainly: Inhibition of alanine racemase in Mycobacterium tuberculosis H37Rv at 5 times MIC preincubated for 16 hrs followed by compound re-addition with L-Ala-[13C]-[3H] measured over 8 hrs by LC-MS/MS analysis.

Series [6] deals with T1, D-alanine--D-alanine ligase (Mycobacterium tuberculosis). Kind of series: Inhibition of D-alanine-D-alanine ligase in Mycobacterium tuberculosis H37Rv assessed as inhibition of denovo D-Alanyl-D-alanine synthesis at 2 times MIC preincubated for 16 hrs followed L-Ala-[13C]-[3H] addition measured over 8 hrs by LC-MS/MS analysis.
For series [7] the target is unchanged. Put plainly: Inhibition of D-alanine-D-alanine ligase in Mycobacterium tuberculosis H37Rv assessed as inhibition of denovo D-Alanyl-D-alanine synthesis at MIC preincubated for 16 hrs followed by L-Ala-[13C]-[3H] addition measured over 8 hrs by LC-MS/MS analysis.
Series [8] deals with Mycobacterium tuberculosis. Kind of series: Reduction in intracellular total Alanine pool size in Mycobacterium tuberculosis H37Rv at 0.25 to 5 times MIC by filter-based technique. Format: functional, organism-based.
Series [9] deals with T1, D-alanine--D-alanine ligase (Mycobacterium tuberculosis). Kind of series: Inhibition of D-alanine-D-alanine ligase in Mycobacterium tuberculosis H37Rv assessed as depletion in D-Alanyl-D-alanine level preincubated for 16 hrs measured post 24 hrs of compound washout.
Series [10] has as its system Mycobacterium tuberculosis. Put plainly: Antimycobacterial activity against Mycobacterium tuberculosis H37Rv at 0.25 to 16 times MIC after 7 days in presence of L-Alanine. Type of series: functional, organism-based.
Series [11] concerns Mycobacterium tuberculosis. Kind of series: Antimycobacterial activity against Mycobacterium tuberculosis H37Rv at 0.25 to 16 times MIC after 7 days in presence of D-Alanine. Format: functional, organism-based.
Series [12] concerns Mycobacterium tuberculosis. Put plainly: Reduction in intracellular total Alanine pool size in Mycobacterium tuberculosis H37Rv at MIC by filter-based mass spectrometry technique. Type of series: functional, organism-based.
Series [13] has as its system Mycobacterium tuberculosis. Put plainly: Reduction in intracellular dipeptide D-alanyl-D-alanine pool size in Mycobacterium tuberculosis H37Rv at MIC by filter-based mass spectrometry technique. Format: functional, organism-based.

Consider four compounds from ChEMBL document CHEMBL3124766, “Metabolomics Reveal d-Alanine:d-Alanine Ligase As the Target of d-Cycloserine in Mycobacterium tuberculosis” (ACS Med Chem Lett, 2013).

Active and inactive are the calls of the source. The calls are words filed in the database; no cut-off is given here.

`CN[C@@H]1[C@H](O[C@H]2[C@H](O[C@H]3[C@H](O)[C@@H](O)[C@H](N=C(N)N)[C@@H](O)[C@@H]3N=C(N)N)O[C@@H](C)[C@]2(O)C=O)O[C@@H](CO)[C@H](O)[C@H]1O`: the outcome in series [1] was inactive.

For the compound `N[C@@H]1CON=C1O` [CYCLOSERINE], in series [2], the remaining at 16 h was less than 10%.

With `N[C@@H]1CONC1=O` [CYCLOSERINE], the Ratio in [3] came to 2. In addition, the result in [4] and in series [11] was inactive. Also, in [5], the inhibition result is “inactive”. The inhibition result in series [6] and in [7] was “Active” each time. Also, the outcome in series [8] and in [10] was Active. Moreover, the Activity result in series [1] is “Dose-dependent effect”. The inhibition result in series [9] was “Dose-dependent effect”.

As for `N[C@H]1CONC1=O` [LEVCYCLOSERINE], the Ratio in series [3] worked out at 4. Further, the outcome in series [12] and in series [13] was Active. In addition, the result in [10] and in [11] was inactive.
